Data reported in US9975878B2, “Substituted triazine BMI-1 inhibitors” (PTC Therapeutics, Inc., priority 2013, dated 2018).

Tested on: Bmi-1 protein
Test: Sandwich ELISA Assay: Bmi-1 protein level in HT-1080 cells treated with test compounds
Assay type: cell-based
Protocol: Cell Seeding and Compound Treatment (Day 1):
HT-1080 cells were seeded at 8000 cells/well (50 μL) in 96-well tissue culture plates. After the cells became adherent (3-4 hours), 2× diluted stocks of test compounds in 50 μL DMEM containing 1% DMSO (final DMSO concentration was 0.5%) were added and the plates were incubated at 37° C. under 5% CO2 for 40-48 hours.
ELISA Plate First Antibody Preparation (Day 2):
The First Antibody (Millipore Mouse, monoclonal to mouse Bmi-1, clone F6, catalog #05-637) diluted to 2 μg/mL in PBS was added (100 μL) to each well of a Nunc MaxiSorp 96-well ELISA plate. The plate was covered with a plate seal and allowed to stand overnight.
Cell Lysate Preparation (Day 3):
Fresh Lysis buffer (1×) was prepared on the day of the assay as follows: 1 mM EDTA, 150 mM NaCl, 0.5% Triton-X 100, 10 mM NaF, 20 mM B-Glycerophosphate, 1 mM DTT (in PBS, pH 7.2-7.4) and HALT protease inhibitor cocktail (1×) (Pierce #78410).
Lysis Buffer (1×, 40 μL) was added to each well and the plate was shaken for 5-10 minutes on an orbital shaker to allow cell lysis, then diluent (1% BSA in PBS in 0.5% NP40) (100 μL) was added to each well.
A standard curve was prepared at the following Bmi-1 concentrations: 8000, 4000, 2000, 1000, 500, 250, 125 and 0 pg/mL. The Bmi-1 Recombinant Protein Standard (Novus Biologicals PCGF4 Recombinant Protein (P01), catalog # H00000648-P01) used to prepare the standard curve was stored at −80° C. On first thaw, the Recombinant Protein Standard was diluted to 10 μg/μL in Blocking Buffer (1% BSA in PBS; BSA: Fisher Scientific Catalog #1600-100). Aliquots were taken and refrozen at −80° C. The aliquots may be kept at 4° C. and reused after first thaw, but only within 1-2 weeks. The Recombinant Protein Standard contains a GST-fusion tag that appears at approximately 70 Kda on Western Blot.
The prepared ELISA plate was washed 3× with Wash Buffer (0.05% Tween-20 in PBS). The final wash was removed from the plate and the plate was blotted dry. Blocking Buffer (300 μL) (1% BSA in PBS) was added to each well. The plate was covered with a plate seal and incubated at room temperature for 1 hour. The blocked plate was washed 3× with Wash Buffer, then the final wash was removed and the plate was blotted dry. The previously prepared samples and standards were added (100 μL/well) and the plate was covered with a plate seal and incubated at 4° C. overnight.
The prepared ELISA plate was removed from incubation and allowed to stand at room temperature for 30 minutes, then washed and blotted dry. The Second Antibody (Cell Signaling Rabbit anti-Bmi-1, Cat# 2830) diluted to 1:600 in Blocking Buffer was added (100 μL) to each well, except as needed for background control wells. The plate was covered with a plate seal and incubated for 1.5 hrs at room temperature.
The ELISA plate was washed and blotted dry as previously described. The Third Antibody (Cell Signaling HRP conjugated anti-rabbit IgG (CellSignaling, Cat#:7074) diluted to 1:300 in Blocking Buffer was added (100 μL) to each well, except as needed for background control wells. The plate was incubated for 1 hr at room temperature.
The plate was washed and blotted dry, then a previously prepared TMB substrate (TMB substrate kit, Pierce catalog #34021) (prepared by mixing kit reagents 1:1) (100 μL) was added per well. The plate was incubated for 20-30 minutes at room temperature in the dark, then Stop Solution (2 M sulfuric acid in water) (50 μL) was added per well. The plates were read at OD450 (experimental) and OD570 (reference).

Row | EC50 [nM] | Structure (SMILES)
1 | 10 to 100 | CCc1nc2ccc(F)cc2n1-c1nc(N)nc(Nc2ccc(Br)cc2)n1 [Cpd 223, N-(4-bromophenyl)-6-(2-ethyl-6-fluoro-1H-benzimidazol-1-yl)-1,3,5-triazine-2,4-diamine]
2 | 100 to 3000 | Cc1nc2ncc(F)cc2n1-c1nc(N)nc(Nc2ccc(C(F)(F)F)cc2)n1 [Cpd 24, 6-(6-fluoro-2-methyl-1H-imidazo[4,5-b]pyridin-1-yl)-N-[4-(trifluoromethyl)phenyl]-1,3,5-triazine-2,4-diamine]
3 | 100 to 3000 | Cc1nc2ccccc2n1-c1nc(N)nc(Nc2ccc3ocnc3c2)n1 [Cpd 15, N-(1,3-benzoxazol-5-yl)-6-(2-methyl-1H-benzimidazol-1-yl)-1,3,5-triazine-2,4-diamine]
4 | 100 to 3000 | Nc1nc(Nc2ccc(OC(F)F)c(F)c2)nc(-n2c(C3CC3)nc3cc(F)ccc32)n1 [Cpd 67, 6-(2-cyclopropyl-5-fluoro-1H-benzimidazol-1-yl)-N-[4-(difluoromethoxy)-3-fluorophenyl]-1,3,5-triazine-2,4-diamine]
5 | 100 to 3000 | CCc1nn2ccccc2c1-c1nc(N)nc(Nc2ccc(OC(F)F)cc2)n1 [Cpd 129, N-[4-(difluoromethoxy)phenyl]-6-(2-ethylpyrazolo[1,5-a]pyridin-3-yl)-1,3,5-triazine-2,4-diamine]
6 | 100 to 3000 | Cc1nc2c(F)cc(F)cc2n1-c1nc(N)nc(Nc2ccc(Cl)cc2)n1 [Cpd 187, N-(4-chlorophenyl)-6-(4,6-difluoro-2-methyl-1H-benzimidazol-1-yl)-1,3,5-triazine-2,4-diamine]
7 | 10 to 100 | Nc1nc(Nc2ccc(OC(F)F)cc2)nc(-n2c(C3CC3)nc3c(F)cccc32)n1 [Cpd 86, 6-(2-cyclopropyl-4-fluoro-1H-benzimidazol-1-yl)-N-[4-(difluoromethoxy)phenyl]-1,3,5-triazine-2,4-diamine]
8 | 100 to 3000 | Nc1nc(Nc2ccc(C(F)(F)F)cc2)nc(-n2c(C(F)F)nc3cc(F)c(F)cc32)n1 [Cpd 114, 6-[2-(difluoromethyl)-5,6-difluoro-1H-benzimidazol-1-yl]-N-[4-(trifluoromethyl)phenyl]-1,3,5-triazine-2,4-diamine]
9 | 100 to 3000 | Fc1ccc2nc(C3CC3)n(-c3ncnc(Nc4ccc(C(F)(F)F)cc4)n3)c2c1 [Cpd 76, 4-(2-cyclopropyl-6-fluoro-1H-benzimidazol-1-yl)-N-[4-(trifluoromethyl)phenyl]-1,3,5-triazin-2-amine]
10 | 1 to 10 | Cc1ccc(Nc2nc(N)nc(-n3c(C4CC4)nc4cc(F)ccc43)n2)cc1 [Cpd 192, 6-(2-cyclopropyl-5-fluoro-1H-benzimidazol-1-yl)-N-(4-methylphenyl)-1,3,5-triazine-2,4-diamine]
11 | 10 to 100 | Nc1nc(Nc2ccc(OC(F)F)cc2)nc(-c2c(C(F)(F)F)nc3ccc(F)cn23)n1 [Cpd 73, N-[4-(difluoromethoxy)phenyl]-6-[6-fluoro-2-(trifluoromethyl)imidazo[1,2-a]pyridin-3-yl]-1,3,5-triazine-2,4-diamine]
12 | 1 to 10 | CCc1nc2ccccc2n1-c1cnnc(Nc2ccc(OC)cc2)n1 [Cpd 205, 5-(2-ethyl-1H-benzimidazol-1-yl)-N-(4-methoxyphenyl)-1,2,4-triazin-3-amine]
13 | 100 to 3000 | CSc1nc2ccccc2n1-c1nc(N)nc(Nc2ccc(OC(F)F)cc2)n1 [Cpd 121, N-[4-(difluoromethoxy)phenyl]-6-[2-(methylsulfanyl)-1H-benzimidazol-1-yl]-1,3,5-triazine-2,4-diamine]
14 | 100 to 3000 | Cc1nc2ccccc2n1-c1nc(N)nc(Nc2ccc(OC(F)(F)F)cc2)n1 [Cpd 3, 6-(2-methyl-1H-benzimidazol-1-yl)-N-[4-(trifluoromethoxy)phenyl]-1,3,5-triazine-2,4-diamine]
15 | 1 to 10 | COc1ccc(Nc2nc(N)nc(-n3c(C)nc4c(F)cccc43)n2)cc1 [Cpd 179, 6-(4-fluoro-2-methyl-1H-benzimidazol-1-yl)-N-(4-methoxyphenyl)-1,3,5-triazine-2,4-diamine]
16 | 10 to 100 | Nc1nc(Nc2ccc(OC(F)F)cc2)nc(-n2c(C(F)F)nc3cc(F)c(F)cc32)n1 [Cpd 115, N-[4-(difluoromethoxy)phenyl]-6-[2-(difluoromethyl)-5,6-difluoro-1H-benzimidazol-1-yl]-1,3,5-triazine-2,4-diamine]
17 | 10 to 100 | Cc1nc2cc(F)c(F)cc2n1-c1nc(N)nc(Nc2ccc(OC(F)F)cc2)n1 [Cpd 11, N-[4-(difluoromethoxy)phenyl]-6-(5,6-difluoro-2-methyl-1H-benzimidazol-1-yl)-1,3,5-triazine-2,4-diamine]
18 | 1 to 10 | Cc1nc2ccccc2n1-c1nc(N)nc(Nc2cnc3ccccc3c2)n1 [Cpd 20, 6-(2-methyl-1H-benzimidazol-1-yl)-N-(quinolin-3-yl)-1,3,5-triazine-2,4-diamine]
19 | 100 to 3000 | Cc1nc2ccc(F)cc2n1-c1cnnc(Nc2ccc(C(F)(F)F)cc2)n1 [Cpd 126, 5-(6-fluoro-2-methyl-1H-benzimidazol-1-yl)-N-[4-(trifluoromethyl)phenyl]-1,2,4-triazin-3-amine]
20 | 1 to 10 | CCc1nc2ccccc2n1-c1nc(N)nc(Nc2ccc(OC)cc2)n1 [Cpd 159, 6-(2-ethyl-1H-benzimidazol-1-yl)-N-(4-methoxyphenyl)-1,3,5-triazine-2,4-diamine]
21 | 100 to 3000 | Nc1nc(Nc2ccc(C(F)(F)F)c(F)c2)nc(-c2c(C(F)(F)F)nc3ccccn23)n1 [Cpd 71, N-[3-fluoro-4-(trifluoromethyl)phenyl]-6-[2-(trifluoromethyl)imidazo[1,2-a]pyridin-3-yl]-1,3,5-triazine-2,4-diamine]
22 | 10 to 100 | CCc1nc2c(F)cc(F)cc2n1-c1nc(N)nc(Nc2ccc(Cl)cc2)n1 [Cpd 190, N-(4-chlorophenyl)-6-(2-ethyl-4,6-difluoro-1H-benzimidazol-1-yl)-1,3,5-triazine-2,4-diamine]
23 | 10 to 100 | Cc1nc2ncc(Cl)cc2n1-c1nc(N)nc(Nc2ccc(OC(F)F)cc2)n1 [Cpd 40, 6-(6-chloro-2-methyl-1H-imidazo[4,5-b]pyridin-1-yl)-N-[4-(difluoromethoxy)phenyl]-1,3,5-triazine-2,4-diamine]
24 | 100 to 3000 | Cc1nc2c(F)cccc2n1-c1nc(N)nc(Nc2ccc(Cl)cc2)n1 [Cpd 181, N-(4-chlorophenyl)-6-(4-fluoro-2-methyl-1H-benzimidazol-1-yl)-1,3,5-triazine-2,4-diamine]
25 | 100 to 3000 | CCc1nc2cc(F)c(F)cc2n1-c1nc(N)nc(Nc2ccc(C(F)(F)F)cc2)n1 [Cpd 116, 6-(2-ethyl-5,6-difluoro-1H-benzimidazol-1-yl)-N-[4-(trifluoromethyl)phenyl]-1,3,5-triazine-2,4-diamine]
26 | 10 to 100 | Nc1nc(Nc2ccc(OC(F)F)cc2)nc(-n2c(C3CC3)nc3cc(F)c(F)cc32)n1 [Cpd 83, 6-(2-cyclopropyl-5,6-difluoro-1H-benzimidazol-1-yl)-N-[4-(difluoromethoxy)phenyl]-1,3,5-triazine-2,4-diamine]
27 | 10 to 100 | Cc1nc2c(F)cc(F)cc2n1-c1nc(N)nc(Nc2ccc(Br)cc2)n1 [Cpd 208, N-(4-bromophenyl)-6-(4,6-difluoro-2-methyl-1H-benzimidazol-1-yl)-1,3,5-triazine-2,4-diamine]
28 | 100 to 3000 | CCc1nc2ccccc2n1-c1nc(N)nc(Nc2ccc(C#N)cc2)n1 [Cpd 163, 4-{[4-amino-6-(2-ethyl-1H-benzimidazol-1-yl)-1,3,5-triazin-2-yl]amino}benzonitrile]
29 | 10 to 100 | Cc1ccc(Nc2nc(N)nc(-n3c(C)nc4cc(F)c(F)cc43)n2)cc1 [Cpd 195, 6-(5,6-difluoro-2-methyl-1H-benzimidazol-1-yl)-N-(4-methylphenyl)-1,3,5-triazine-2,4-diamine]
